{
  "source": "paper PMC10382351",
  "about": "“In vivo evaluation of a novel ^18F-labeled PET radioligand for translocator protein 18 kDa (TSPO) in monkey brain” (European Journal of Nuclear Medicine and Molecular Imaging, 2023)",
  "key": {"[1]": {"test": "Ex vivo radioanalysis of mouse brain and plasma 120 min after injection", "assay_type": "in vivo, mice", "method": "An ex vivo experiment was performed in another mouse 120 min after [^18F]SF51 injection. Anticoagulated blood was withdrawn from the myocardium, and the brain was extracted. The harvested brain was weighed and immediately underwent radioanalysis. The plasma was separated by centrifugation, and the radioactivity in both whole blood and plasma was measured as previously described."}, "[2]": {"test": "Parent radioactivity and radiometabolite analysis in arterial plasma (HPLC)", "assay_type": "in vivo, rhesus monkey", "conditions": "for Peak parent concentration in arterial plasma: n = 3", "method": "Arterial blood sampling was performed in all scans to determine plasma parent concentration of the radioligand. Seventeen blood samples were drawn from an implanted port in the femoral artery of the monkeys during the 180-min PET scans at 15-s intervals for the first two minutes, followed by samples at 3, 5, 10, 30, 60, 90, 120, 150, and 180 min (volumes varied from 1.0 to 5.0 mL). Radioactivity in plasma was quantified and corrected for radiometabolites using high-performance liquid chromatography (HPLC). The separation was performed on an X-Terra C18 column (10 µm, 7.8 × 300 mm) with an isocratic mobile phase composed of methanol: water: triethylamine (77.5:22.5:0.1 by vol.) at a flow rate of 5 mL/min. The plasma free fraction (fP) was measured by ultrafiltration, as previously described. A standard fP was measured in a frozen aliquot of pooled plasma in parallel with the experimental blood sample, and as internal standard it was then used to normalize the measured fP of the blood samples."}, "[3]": {"conditions": "representative radiochromatogram, baseline study, at 30 minutes"}},
  "note": "Where “and” joins values, the source holds several entries; their conditions need not be identical. Equal values may be shown once.",
  "data": [
    {"smiles": "CC[C@@H](C)N(C)C(=O)c1nc(-c2cccc([18F])c2)c2ccccc2n1", "note": "[[^18F]SF51]", "values": [
      {"measurement": "Parent radioligand as share of radioactivity in plasma", "setting": "[1]", "result": 9.1, "unit": "%"},
      {"measurement": "Parent radioligand as share of radioactivity in the brain", "setting": "[1]", "result": "96% and 96.4%"},
      {"measurement": "Average percentage of parent in plasma", "setting": "[2]; at 120 min, roughly the same until 180 min, HPLC", "result": 25, "unit": "%"},
      {"measurement": "Peak parent concentration in arterial plasma", "setting": "[2]; baseline", "result": "4.1 ± 0.4", "unit": "SUV"},
      {"measurement": "Peak parent concentration in arterial plasma", "setting": "[2]; blocked with PK11195 5 mg/kg", "result": "7.5 ± 1.7", "unit": "SUV"},
      {"measurement": "Number of radiometabolites in plasma (more hydrophilic than the parent)", "setting": "[2]; monkey arterial plasma, HPLC", "result": "At least five"},
      {"measurement": "Parent in arterial plasma", "setting": "[2]; [3]", "result": 36, "unit": "%"},
      {"measurement": "Total radiometabolites in arterial plasma", "setting": "[2]; [3]", "result": 64, "unit": "%"}
    ]}
  ]
}
